Test results published in PubChem BioAssay (NCI).
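The concentration for 50% growth inhibition is given as GI50. At the TGI there is no net growth.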

How the values were obtained:
Experiment in all cases: NCI tumour cell line growth inhibition, 384-well format
SF-295 CNS = system: SF-295 CNS
DU-145 prostate = system: DU-145 prostate
MDA-MB-231 breast = system: MDA-MB-231 breast
SW-620 colon = system: SW-620 colon
U251 glioblastoma = system: U251 glioblastoma
NCI-H460 NSCLC = system: NCI-H460 NSCLC
MOLT-4 leukemia = system: MOLT-4 leukemia
SK-MEL-28 melanoma = system: SK-MEL-28 melanoma
HL-60(TB) leukemia = system: HL-60(TB) leukemia
SN12C renal = system: SN12C renal
786-0 renal = system: 786-0 renal
BT-549 breast = system: BT-549 breast
LOX IMVI melanoma = system: LOX IMVI melanoma
PC-3 prostate = system: PC-3 prostate
A498 renal = system: A498 renal
HOP-62 NSCLC = system: HOP-62 NSCLC
SR leukemia = system: SR leukemia
ACHN renal = system: ACHN renal
UACC-257 melanoma = system: UACC-257 melanoma
NCI-H522 lung = system: NCI-H522 lung
HT29 colon = system: HT29 colon
T-47D breast = system: T-47D breast
SK-OV-3 ovarian = system: SK-OV-3 ovarian
NCI-H322M lung = system: NCI-H322M lung
HS 578T breast = system: HS 578T breast
UACC-62 melanoma = system: UACC-62 melanoma
UO-31 renal = system: UO-31 renal
SNB-19 CNS = system: SNB-19 CNS
COLO 205 colon = system: COLO 205 colon
OVCAR-4 ovarian = system: OVCAR-4 ovarian
OVCAR-8 ovarian = system: OVCAR-8 ovarian
RPMI-8226 leukemia = system: RPMI-8226 leukemia
CAKI-1 renal = system: CAKI-1 renal
EKVX NSCLC = system: EKVX NSCLC
RXF 393 renal = system: RXF 393 renal
HCT-15 colon = system: HCT-15 colon
NCI-H226 lung = system: NCI-H226 lung
A549 NSCLC = system: A549 NSCLC
MCF7 breast = system: MCF7 breast
MDA-MB-468 breast = system: MDA-MB-468 breast
NCI-H23 lung = system: NCI-H23 lung
OVCAR-3 ovarian = system: OVCAR-3 ovarian
HOP-92 NSCLC = system: HOP-92 NSCLC
IGROV1 ovarian = system: IGROV1 ovarian
K-562 leukemia = system: K-562 leukemia
OVCAR-5 ovarian = system: OVCAR-5 ovarian
CCRF-CEM leukemia = system: CCRF-CEM leukemia
M14 melanoma = system: M14 melanoma
SNB-75 CNS = system: SNB-75 CNS
SK-MEL-5 melanoma = system: SK-MEL-5 melanoma
KM12 colon = system: KM12 colon
TK-10 renal = system: TK-10 renal
NCI/ADR-RES ovarian = system: NCI/ADR-RES ovarian
MALME-3M melanoma = system: MALME-3M melanoma
HCC-2998 colon = system: HCC-2998 colon
SF-539 CNS = system: SF-539 CNS
MDA-MB-435 melanoma = system: MDA-MB-435 melanoma
SF-268 CNS = system: SF-268 CNS

Question: With `COCCOC(=O)C1=C(C)NC2=C(C(=O)CC(c3ccccc3OC)C2)C1c1cccc(O)c1` (stereo unspecified) as the compound, how does the GI50 (SF-295 CNS) read?
Answer: 16.2 µM

Question: And the TGI (SF-295 CNS)?
Answer: 37.5 µM

Question: What about the GI50 (DU-145 prostate) of the same compound?
Answer: 18.5 µM

Question: What about the TGI (DU-145 prostate) of the same compound?
Answer: 65 µM

Question: And the GI50 (MDA-MB-231 breast)?
Answer: 4.79 µM

Question: What about the TGI (MDA-MB-231 breast) of the same compound?
Answer: 60.4 µM

Question: What about the GI50 (SW-620 colon) of the same compound?
Answer: 13 µM

Question: What about the TGI (SW-620 colon) of the same compound?
Answer: 27 µM

Question: And the GI50 (U251 glioblastoma)?
Answer: 17.2 µM

Question: What about the TGI (U251 glioblastoma) of the same compound?
Answer: 44 µM

Question: And the GI50 (NCI-H460 NSCLC)?
Answer: 14.7 µM

Question: What about the TGI (NCI-H460 NSCLC) of the same compound?
Answer: 30.8 µM

Question: And the GI50 (MOLT-4 leukemia)?
Answer: 7.21 µM

Question: What about the TGI (MOLT-4 leukemia) of the same compound?
Answer: 20.7 µM

Question: What about the GI50 (SK-MEL-28 melanoma) of the same compound?
Answer: 11 µM

Question: And the TGI (SK-MEL-28 melanoma)?
Answer: 31 µM

Question: And the GI50 (HL-60(TB) leukemia)?
Answer: 1.27 µM

Question: And the TGI (HL-60(TB) leukemia)?
Answer: 3.17 µM

Question: And the GI50 (SN12C renal)?
Answer: 15.6 µM

Question: And the TGI (SN12C renal)?
Answer: 41.2 µM

Question: What about the GI50 ([…]-0 renal) of the same compound?
Answer: 5.49 µM

Question: What about the TGI (786-0 renal) of the same compound?
Answer: 24.2 µM

Question: What about the GI50 (BT-549 breast) of the same compound?
Answer: 2.55 µM

Question: And the TGI (BT-549 breast)?
Answer: 14.9 µM

Question: What about the GI50 (LOX IMVI melanoma) of the same compound?
Answer: 3.75 µM

Question: And the TGI (LOX IMVI melanoma)?
Answer: 13.6 µM

Question: What about the GI50 (PC-3 prostate) of the same compound?
Answer: 15.6 µM

Question: What about the TGI (PC-3 prostate) of the same compound?
Answer: 53.6 µM

Question: What about the GI50 (A498 renal) of the same compound?
Answer: 10.6 µM

Question: What about the TGI (A498 renal) of the same compound?
Answer: 29.6 µM

Question: And the GI50 (HOP-62 NSCLC)?
Answer: 5.19 µM

Question: And the TGI (HOP-62 NSCLC)?
Answer: 22.1 µM

Question: What about the GI50 (SR leukemia) of the same compound?
Answer: 0.761 µM

Question: What about the TGI (SR leukemia) of the same compound?
Answer: 11.5 µM

Question: And the GI50 (ACHN renal)?
Answer: 17.3 µM

Question: And the TGI (ACHN renal)?
Answer: 55.6 µM

Question: And the GI50 (UACC-257 melanoma)?
Answer: 5.14 µM

Question: And the TGI (UACC-257 melanoma)?
Answer: 22.8 µM

Question: And the GI50 (NCI-H522 lung)?
Answer: 2.39 µM

Question: And the TGI (NCI-H522 lung)?
Answer: 13.7 µM

Question: What about the GI50 (HT29 colon) of the same compound?
Answer: 6.75 µM

Question: And the TGI (HT29 colon)?
Answer: 22.2 µM

Question: And the GI50 (T-47D breast)?
Answer: 8.93 µM

Question: And the TGI (T-47D breast)?
Answer: 66.7 µM

Question: What about the GI50 (SK-OV-3 ovarian) of the same compound?
Answer: 3.74 µM

Question: And the TGI (SK-OV-3 ovarian)?
Answer: 20.4 µM

Question: What about the GI50 (NCI-H322M lung) of the same compound?
Answer: 12.7 µM

Question: What about the TGI (NCI-H322M lung) of the same compound?
Answer: > 100 µM

Question: What about the GI50 (HS 578T breast) of the same compound?
Answer: 1.93 µM

Question: What about the TGI (HS 578T breast) of the same compound?
Answer: 8.82 µM

Question: What about the GI50 (UACC-62 melanoma) of the same compound?
Answer: 2.38 µM

Question: And the TGI (UACC-62 melanoma)?
Answer: 16.6 µM

Question: And the GI50 (UO-31 renal)?
Answer: 34.6 µM

Question: What about the TGI (UO-31 renal) of the same compound?
Answer: > 100 µM

Question: And the GI50 (SNB-19 CNS)?
Answer: 11.4 µM

Question: And the TGI (SNB-19 CNS)?
Answer: 38 µM

Question: And the GI50 (COLO 205 colon)?
Answer: 7.74 µM

Question: And the TGI (COLO 205 colon)?
Answer: 24.6 µM

Question: What about the GI50 (OVCAR-4 ovarian) of the same compound?
Answer: 2.14 µM

Question: What about the TGI (OVCAR-4 ovarian) of the same compound?
Answer: 8.76 µM

Question: And the GI50 (OVCAR-8 ovarian)?
Answer: 6.94 µM

Question: What about the TGI (OVCAR-8 ovarian) of the same compound?
Answer: 21.6 µM

Question: And the GI50 (RPMI-8226 leukemia)?
Answer: 1.08 µM

Question: And the TGI (RPMI-8226 leukemia)?
Answer: 4.87 µM

Question: What about the GI50 (CAKI-1 renal) of the same compound?
Answer: 4.44 µM

Question: What about the TGI (CAKI-1 renal) of the same compound?
Answer: 27.9 µM

Question: What about the GI50 (EKVX NSCLC) of the same compound?
Answer: 17.6 µM

Question: And the TGI (EKVX NSCLC)?
Answer: 62.2 µM

Question: What about the GI50 (RXF 393 renal) of the same compound?
Answer: 16.2 µM

Question: And the TGI (RXF 393 renal)?
Answer: 34.9 µM

Question: And the GI50 (HCT-15 colon)?
Answer: 11.6 µM

Question: What about the TGI (HCT-15 colon) of the same compound?
Answer: 27 µM

Question: And the GI50 (NCI-H226 lung)?
Answer: 4.91 µM

Question: What about the TGI (NCI-H226 lung) of the same compound?
Answer: 27.6 µM

Question: And the GI50 (A549 NSCLC)?
Answer: 6.88 µM

Question: What about the TGI (A549 NSCLC) of the same compound?
Answer: 31 µM

Question: And the GI50 (MCF7 breast)?
Answer: 2.68 µM

Question: What about the TGI (MCF7 breast) of the same compound?
Answer: 20.7 µM

Question: What about the GI50 (MDA-MB-468 breast) of the same compound?
Answer: 2.5 µM

Question: What about the TGI (MDA-MB-468 breast) of the same compound?
Answer: 7.67 µM

Question: And the GI50 (NCI-H23 lung)?
Answer: 8.58 µM

Question: What about the TGI (NCI-H23 lung) of the same compound?
Answer: 25.8 µM

Question: What about the GI50 (OVCAR-3 ovarian) of the same compound?
Answer: 5.05 µM

Question: And the TGI (OVCAR-3 ovarian)?
Answer: 17.6 µM

Question: What about the GI50 (HOP-92 NSCLC) of the same compound?
Answer: 4.02 µM

Question: And the TGI (HOP-92 NSCLC)?
Answer: 21 µM

Question: And the GI50 (IGROV1 ovarian)?
Answer: 8.28 µM

Question: And the TGI (IGROV1 ovarian)?
Answer: 24.7 µM

Question: What about the GI50 (K-562 leukemia) of the same compound?
Answer: 5.62 µM

Question: And the TGI (K-562 leukemia)?
Answer: 19.6 µM

Question: What about the GI50 (OVCAR-5 ovarian) of the same compound?
Answer: 12 µM

Question: What about the TGI (OVCAR-5 ovarian) of the same compound?
Answer: 43.1 µM

Question: What about the GI50 (CCRF-CEM leukemia) of the same compound?
Answer: 5.99 µM

Question: And the TGI (CCRF-CEM leukemia)?
Answer: 19.4 µM

Question: And the GI50 (M14 melanoma)?
Answer: 11 µM

Question: And the TGI (M14 melanoma)?
Answer: 34.9 µM

Question: What about the GI50 (SNB-75 CNS) of the same compound?
Answer: 9.16 µM

Question: What about the TGI (SNB-75 CNS) of the same compound?
Answer: 98.6 µM

Question: And the GI50 (SK-MEL-5 melanoma)?
Answer: 4.43 µM

Question: And the TGI (SK-MEL-5 melanoma)?
Answer: 18.1 µM

Question: And the GI50 (KM12 colon)?
Answer: 9.21 µM

Question: And the TGI (KM12 colon)?
Answer: 26.2 µM

Question: What about the GI50 (TK-10 renal) of the same compound?
Answer: 8.47 µM

Question: And the TGI (TK-10 renal)?
Answer: 28.1 µM

Question: What about the GI50 (NCI/ADR-RES ovarian) of the same compound?
Answer: 46.3 µM

Question: And the TGI (NCI/ADR-RES ovarian)?
Answer: > 100 µM

Question: What about the GI50 (MALME-3M melanoma) of the same compound?
Answer: 4.14 µM

Question: And the TGI (MALME-3M melanoma)?
Answer: 23.2 µM

Question: And the GI50 (HCC-2998 colon)?
Answer: 3.67 µM

Question: And the TGI (HCC-2998 colon)?
Answer: 15.2 µM

Question: What about the GI50 (SF-539 CNS) of the same compound?
Answer: 11.2 µM

Question: And the TGI (SF-539 CNS)?
Answer: 27.3 µM

Question: And the GI50 (MDA-MB-435 melanoma)?
Answer: 9.55 µM

Question: And the TGI (MDA-MB-435 melanoma)?
Answer: 24.8 µM

Question: And the GI50 (SF-268 CNS)?
Answer: 15.5 µM

Question: What about the TGI (SF-268 CNS) of the same compound?
Answer: 37 µM
